{
  "source": "ChEMBL document CHEMBL1133033",
  "about": "“Targeting the dimerization interface for irreversible inhibition of HIV-1 protease” (Bioorg Med Chem Lett, 2000)",
  "key": {"[1]": {"molecular_target": "Human immunodeficiency virus type 1 protease (Human immunodeficiency virus 1) (UniProt Q72874)", "assay": "Inhibitory concentration of compound resulting in half-maximal inactivation of HIV-1 protease"}, "[2]": {"molecular_target": "Human immunodeficiency virus type 1 protease (Human immunodeficiency virus 1) (UniProt Q72874)", "assay": "Maximal inactivation rate of compound tested against HIV-1 protease"}},
  "note": "Positions of bridges follow the written chain, without caps; N, C: chain ends. Non-standard residues stand in square brackets, D forms with d. Residues, ends and D or L forms follow the SMILES beside them. Chains are numbered I, II in the order given. ξ: configuration not given here. *: point of attachment. S(3-COOH-4-NO2-phenyl) = O=C(O)c1cc(S*)ccc1[N+](=O)[O-]; C16 diacid = O=C(O)CCCCCCCCCCCCCCC(=O)*; Thr(3ξ) = CC(O)[C@H](N)C(=O)O; ξP = O=C(O)C1CCCN1",
  "data": [
    {"smiles": "CC[C@H](C)[C@H](NC(=O)[C@H](CCC(N)=O)NC(=O)C1CCCN1C(=O)CCCCCCCCCCCCCCC(=O)N[C@@H](CO)C(=O)N[C@H](C(=O)N[C@@H](CC(C)C)C(=O)N[C@@H](CC(N)=O)C(=O)N[C@@H](CSSc1ccc([N+](=O)[O-])c(C(=O)O)c1)C(=O)O)[C@@H](C)O)C(=O)N[C@H](C(=O)N[C@@H](CC(C)C)C(=O)N[C@@H](Cc1c[nH]c2ccccc12)C(=O)O)C(C)O", "note": "(some centres not stated) (I: [ξP]QI[Thr(3ξ)]LW-OH / II: STLNC(S(3-COOH-4-NO2-phenyl))-OH; linker I:N-II:N via C16 diacid)", "values": [
      {"measurement": "K inact", "setting": "[1]", "value": 3.7, "unit": "µM"},
      {"measurement": "Vinact", "setting": "[2]", "value": 0.012, "unit": "min⁻¹"}
    ]}
  ]
}
